# Measured values reported in publication PMC10694654 (The Journal of Biological Chemistry, 2023).
# B1: AphAEc-His6 (periplasmic acid phosphatase AphA of Escherichia coli, signal peptide removed, C-terminal His6 tag) (enzyme, UniProt P0AE22 26-237, looked up)
# chain: SSPSPLNPGTNVARLAEQAPIHWVSVAQIENSLAGRPPMAVGFDIDDTVLFSSPGFWRGKKTFSPESEDYLKNPVFWEKMNNGWDEFSIPKEVARQLIDMHVRRGDAIFFVTGRSPTKTETVSKTLADNFHIPATNMNPVIFAGDKPGQNTKSQWLQDKNIRIFYGDSDNDITAARDVGARGIRILRASNSTYKPLPQAGAFGEEVIVNSEY
# notes: AphA, nonspecific periplasmic acid phosphatase of Escherichia coli K-12; signal peptide removed from the construct; pET28a-aphAEc-his; also called AphA-His6; Ct His6-tagged AphAEc; source: E. coli, purified (Ni-NTA, size-exclusion chromatography on Superdex 200 Increase); not shown: His6, C-terminal, kept
# B2: His6-AphAEc (periplasmic acid phosphatase AphA of Escherichia coli, signal peptide removed, N-terminal His6 tag) (enzyme, UniProt P0AE22 26-237, looked up)
# chain: B1 chain
# notes: AphA, nonspecific periplasmic acid phosphatase of Escherichia coli K-12; signal peptide removed from the construct; pET28a-his-aphAEc; also called Nt His6-tagged AphAEc; source: E. coli, purified (Ni-NTA, size-exclusion chromatography on Superdex 200 Increase); not shown: His6, N-terminal, kept
# B3: tagless AphAEc (periplasmic acid phosphatase AphA of Escherichia coli, His6-SUMO tag cleaved off by Ulp1) (enzyme)
# chain: SPSPLNPGTNVARLAEQAPIHWVSVAQIENSLAGRPPMAVGFDIDDTVLFSSPGFWRGKKTFSPESEDYLKNPVFWEKMNNGWDEFSIPKEVARQLIDMHVRRGDAIFFVTGRSPTKTETVSKTLADNFHIPATNMNPVIFAGDKPGQNTKSQWLQDKNIRIFYGDSDNDITAARDVGARGIRILRASNSTYKPLPQAGAFGEEVIVNSEY
# notes: AphA, nonspecific periplasmic acid phosphatase of Escherichia coli K-12; protein of around 25 kDa on SDS-PAGE; pET24d-his-sumo-aphAEc; linker between SUMO and aphA removed by mutagenesis; probably the mature protein as in m1 and m2; also called cleaved His6-SUMO-AphAEc; source: E. coli, purified; His6-SUMO tag cleaved off with His6-Ulp1, size-exclusion chromatography; not shown: His6-SUMO, …
# Tests used:
# His6-AphAEc = biological target: T1, His6-AphAEc (Escherichia coli, UniProt P0AE22); assay: DRaCALA competition against […]-cAMP; assay type: binding; settings: 5 mM AMP (figure legend: 4 mM); 2 nM 32P-cAMP; 40 mM Tris pH 7.5, 100 mM NaCl, 10 mM MgCl2
# T1 construct: gene aphA; signal peptide removed, N-terminal His6 kept, pET28a, expressed in E. coli; tetramer by SEC
# AphAEc-His6 = biological target: T2, AphAEc-His6 (Escherichia coli, UniProt P0AE22); assay: DRaCALA competition against […]-cAMP; assay type: binding; settings: 5 mM AMP (figure legend: 4 mM); 2 nM 32P-cAMP; 40 mM Tris pH 7.5, 100 mM NaCl, 10 mM MgCl2
# T2 construct: gene aphA; signal peptide removed, C-terminal His6 kept, pET28a, expressed in E. coli; non-natural dimer by SEC
# His6-HelHi = biological target: T3, His6-HelHi (Haemophilus influenzae, UniProt P26093); assay: pNPP phosphatase assay, A405; assay type: biochemical; settings: 1 mM pNPP, 15 nM enzyme, pH 8 and 5.6
# T3 construct: gene hel; N-terminal His6 kept, pET28a-his-helHi, expressed in E. coli
# T3 sequence (P26093 21-274): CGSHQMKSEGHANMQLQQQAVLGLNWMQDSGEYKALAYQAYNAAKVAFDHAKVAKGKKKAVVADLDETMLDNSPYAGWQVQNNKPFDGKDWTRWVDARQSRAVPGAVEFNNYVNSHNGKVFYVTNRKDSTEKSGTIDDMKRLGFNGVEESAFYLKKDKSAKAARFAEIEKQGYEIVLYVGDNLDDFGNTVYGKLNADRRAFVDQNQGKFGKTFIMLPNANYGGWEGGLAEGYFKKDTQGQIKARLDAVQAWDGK
# [1] = biological target: the molecule itself; assay: SEC; Superdex 200 Increase 10/300 GL on an AKTA system; size estimated against standard proteins
Molecule,stoichiometry N [1],further results
Nc1ncnc2c1ncn2[C@@H]1O[C@H](COP(=O)(O)O)[C@@H](O)[C@H]1O [AMP],,DRaCALA competition against 32P-cAMP (His6-AphAEc): the binding fractions dropped to nearly zero for AMP; DRaCALA competition against 32P-cAMP (AphAEc-His6): the binding fractions dropped to nearly zero for AMP
O=[N+]([O-])c1ccc(OP(=O)(O)O)cc1 [p-Nitrophenyl Phosphate],,"pNPP phosphatase assay, A405 (His6-HelHi): acid phosphatase assay of the His6-HelHi protein"
B1,2,
B2,4,
B3,4,
